Measured values published in patent US20250332152A1, “INHALED THERAPY FOR CARDIAC ARRHYTHMIA” (InCarda Therapeutics, Inc., priority 2021, published 2025).

Legend:
[1] = Flecainide peak plasma concentration (Cmax) versus BMI classification in atrial fibrillation patients; type: in vivo, human; details: atrial fibrillation patients (n=81); 120 mg flecainide acetate via oral inhalation; both conversion and no conversion cohorts
Experimental: Logistic regression was performed to identify predictors of cardioversion success at 90 minutes post-dose, and potential interactions were examined by linear regression.
FIG. 6 is a chart depicting median Cmax versus BMI classification (normal (BMI<25), overweight (BMI≥25 and <30), obese/severe obese (BMI≥30)) in atrial fibrillation patients (n=81) administered 120 mg flecainide acetate via oral inhalation.

[2] = Solubility of flecainide acetate in water solution; type: physicochemical
[3] = system: recent-onset symptomatic AF; assay: Clinical study: cardioversion of recent-onset atrial fibrillation to sinus rhythm with orally inhaled flecainide; type: in vivo, human; details: 120 mg flecainide acetate (eTLD) by oral inhalation; for conversion rate (AF to sinus rhythm): cardioversion success at 90 minutes post-dose
Experimental: A flecainide acetate oral inhalation solution for acute cardioversion of recent-onset symptomatic AF was administered to 80 patients to determine if height, weight, and body mass index (BMI) are predictors of successful cardioversion of AF to sinus rhythm (SR) with the inhalation solution.
The flecainide formulation used in this study is described in TABLE 1.
In this study, for inhalation delivery of flecainide, an estimated total lung dose (eTLD) of 120 mg were calculated to account for losses of flecainide in the inhalation device and losses of flecainide in subjects' mouth and throat. An 120 mg eTLD was thereby used to denote the dose that actually reached the lungs of the subjects. By design, in all nebulizers there can be a residual volume or mass of drug solution that stays in the nebulizer, and there can also be a percentage of the aerosol caught by subject's throat and mouth. For instance, in this study, it was estimated that 30% of the aerosol was lost in subject's throat and mouth. Therefore the eTLD would be: eTLD=(100-30) %*amount of aerosolized drug that left nebulizer=70%*(amount of drug placed in nebulizer−amount of drug staying in nebulizer).
The AeroEclipse®II BAN inhaler was used for nebulization and inhalation of the exemplary flecainide formulations. It is available as an approved device in several countries across the world including European countries, USA, and Canada. The inhaler is a hand-held, breath actuated, jet nebulizer which operates through a source of compressed air available as medical air in the hospital ER. The AeroEclipse®BAN delivers a high respirable dose and an optimal particle size to reach the deeper lung regions to enable faster drug absorption. Flecainide acetate inhalation solution was transferred from the vial into the reservoir of the AeroEclipse®II BAN at a volume corresponding to the required dose to the lung. To administer an estimated total lung dose of […] flecainide acetate, the nebulizer was filled with 4.2 mL of Formulation A described in TABLE 1. The total volume filled in each dosing cup was based on the assumption of a 70% (v/v) lung deposition, a 12.5% (v/v) loss due to fugitive aerosol based on in-vitro experiments, and device retention of approximately 1.5 mL of the solution.
Participants in the study were administered the study medications according to the following guidelines: • Subject self-administers inhalation using the AeroEclipse® II BAN • Subject is seated upright in a comfortable chair or adjustable bed with table that has adjustable height in front (e.g. overbed table on casters) where the subject can rest his/her arms (e.g. overbed table on casters) from approximately 30 minutes prior to the start of inhalation up to at least 15 minutes after the last inhalation is completed. […]

median flecainide peak plasma concentration (Cmax) versus BMI category [1]: positive correlation
solubility [2]: ~60 mg/mL
SMILES: O=C(NCC1CCCCN1)c1cc(OCC(F)(F)F)ccc1OCC(F)(F)F (stereo not drawn) [flecainide acetate]
conversion rate (AF to sinus rhythm) ([3]; obese patients (BMI≥30 and <35 kg/m^2)): 43%
conversion rate (AF to sinus rhythm) ([3]; overweight patients (BMI≥25 and <30 kg/m^2)): 47%
conversion rate (AF to sinus rhythm) ([3]; patients with normal BMI (<25 kg/m^2)): 53%
AF successfully converted to sinus rhythm ([3]; severely obese patients, 90 minutes post-dose): none
